From ChEMBL document CHEMBL1124356, “Active reduced-size hexapeptide analogues of luteinizing hormone-releasing hormone” (J Med Chem, 1989)

Columns and labels:
[1] = molecular target: T1, Gonadotropin-releasing hormone receptor (Rattus norvegicus, UniProt P30969); assay: In vitro binding affinity towards […] from rat pituitary cells is expressed as negative logarithm of the equilibrium dissociation constant; type: cell-based, Pituitary gland cell
T1 sequence (P30969 whole entry): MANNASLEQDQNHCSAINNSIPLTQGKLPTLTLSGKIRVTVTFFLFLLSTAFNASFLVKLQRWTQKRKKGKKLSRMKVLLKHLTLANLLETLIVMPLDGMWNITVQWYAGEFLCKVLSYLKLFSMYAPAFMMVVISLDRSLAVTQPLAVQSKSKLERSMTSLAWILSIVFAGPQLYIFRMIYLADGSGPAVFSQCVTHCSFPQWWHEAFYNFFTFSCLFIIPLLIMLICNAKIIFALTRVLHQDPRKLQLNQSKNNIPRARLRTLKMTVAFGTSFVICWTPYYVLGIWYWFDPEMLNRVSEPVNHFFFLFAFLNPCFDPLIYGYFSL

[2] = molecular target: Gonadotropin-releasing hormone receptor (Rattus norvegicus) (UniProt P30969); assay: Luteinizing hormone inhibiting potency in rats is expressed as negative logarithm of the concentration (antagonist); conditions: read-out: pA2 (converted)

SMILES | Ki [1] [nM] | Kb [2] [nM]
CCNC(=O)[C@@H]1CCCN1C(=O)[C@H](CCCN=C(N)N)NC(=O)[C@H](CC(C)C)NC(=O)[C@@H](CC(C)C)NC(=O)[C@H](Cc1ccc(O)cc1)NC(=O)[C@H](CO)NC(=O)[C@@H](N)Cc1cccc2ccccc12 | 50.1 | 
CCNC(=O)[C@@H]1CCCN1C(=O)[C@H](CCCN=C(N)N)NC(=O)[C@H](CC(C)C)NC(=O)[C@@H](CC(C)C)NC(=O)[C@H](Cc1ccc(O)cc1)NC(=O)[C@H](CO)NC(=O)[C@@H](N)Cc1c[nH]c2ccccc12 |  | 871
CCNC(=O)[C@@H]1CCCN1C(=O)[C@H](CCCN=C(N)N)NC(=O)[C@H](CC(C)C)NC(=O)[C@@H](Cc1c[nH]c2ccccc12)NC(=O)[C@H](Cc1ccc(O)cc1)NC(=O)[C@H](CO)NC(=O)[C@@H](N)Cc1c[nH]c2ccccc12 |  | 57.5
